Legend:
Format in all cases: cell-based
[1] = tested on: murine colon cancer CT-26 cells; test: CCK8 growth inhibition, CT26; details: Mus musculus, CCK8 method, read-out: IC50 of inhibitory activity on tumor cell growth, CT26
TLR7 = molecular target: T1, TLR7 (Homo sapiens, UniProt Q9NYK1); test: Detection of TLR7 activation (HEK-Blue Detection), SEAP reporter; details: HEK-Blue hTLR7 cells, 6-16 hrs, absorbance 650 nm; read-out: TLR7(EC50/μM)
T1 construct: host or cells: HEK-Blue hTLR7 cells (HEK293-derived SEAP reporter line)
T1 sequence (Q9NYK1 27-1049): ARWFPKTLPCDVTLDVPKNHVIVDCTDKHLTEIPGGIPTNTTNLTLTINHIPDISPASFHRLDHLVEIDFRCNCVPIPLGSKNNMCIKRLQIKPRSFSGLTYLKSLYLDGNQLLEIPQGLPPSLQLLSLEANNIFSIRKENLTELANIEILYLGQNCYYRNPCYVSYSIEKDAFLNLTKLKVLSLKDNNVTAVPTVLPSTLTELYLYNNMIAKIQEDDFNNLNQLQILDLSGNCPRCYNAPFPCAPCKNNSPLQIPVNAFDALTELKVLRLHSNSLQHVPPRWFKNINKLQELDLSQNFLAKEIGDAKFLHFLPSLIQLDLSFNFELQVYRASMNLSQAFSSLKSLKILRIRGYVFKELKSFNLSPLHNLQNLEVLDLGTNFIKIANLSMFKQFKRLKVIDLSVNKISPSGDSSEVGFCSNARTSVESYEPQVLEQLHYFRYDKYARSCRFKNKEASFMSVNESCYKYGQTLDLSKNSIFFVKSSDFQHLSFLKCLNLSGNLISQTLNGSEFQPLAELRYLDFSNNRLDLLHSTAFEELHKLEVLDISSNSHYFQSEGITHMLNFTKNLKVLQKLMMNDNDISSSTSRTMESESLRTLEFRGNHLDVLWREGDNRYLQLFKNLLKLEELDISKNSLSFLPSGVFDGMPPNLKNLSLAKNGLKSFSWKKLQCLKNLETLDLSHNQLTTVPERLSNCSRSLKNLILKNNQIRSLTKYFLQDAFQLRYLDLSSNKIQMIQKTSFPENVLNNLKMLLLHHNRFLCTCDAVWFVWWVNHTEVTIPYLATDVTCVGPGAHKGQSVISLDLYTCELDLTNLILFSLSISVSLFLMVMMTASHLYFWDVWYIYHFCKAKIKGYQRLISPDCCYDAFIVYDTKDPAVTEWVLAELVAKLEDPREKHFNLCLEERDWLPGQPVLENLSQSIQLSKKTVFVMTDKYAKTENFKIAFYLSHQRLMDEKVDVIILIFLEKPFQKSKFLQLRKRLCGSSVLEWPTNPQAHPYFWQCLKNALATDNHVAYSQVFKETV
Method: HEK-Blue™hTLR7 cells (purchased from InvivoGen) in a logarithmic growth phase were taken, with a growth medium (Gibco, C11995500BT, Invivo Gen, ant-nr) discarded. The cells were gently rinsed twice by an appropriate amount of 37° C. PBS (Hyclone, SH30256.01), a rinsed PBS was discarded. Thereafter, the cells were added with 2-5 mL of 37° C. PBS, incubated for 1 to 2 minutes, and then scraped by a cell scraper and gently pipetted to be dispersed into a single cell suspension. A hemocytometer was adopted to count the cells and a cell concentration was calculated. After that, a HEK-Blue™ Detection solution (purchased from Invivo Gen) was adopted to adjust the cell concentration of the cell suspension to 2.5×10^4/180 μL per well for cell plating on a 96-well cell culture plate. The HEK-Blue™hTLR7 cells were stimulated according to the designed series of GY compound or drug concentrations (0.01 μM, 0.1 μM, 1 μM, 5 μM, 15 μM, and 30 μM), with 3 replicate wells for each concentration, and were incubated at 37° C., 5% carbon dioxide for 6-16 hrs. After the incubation, the absorbance value was read at 650 nm with a full-wavelength microplate reader (BioTek-Epoch), as listed in Table 2.
Relative induction=(average OD value of experimental group−average OD value of negative control group)/average OD value of negative control group.
Specific details for the above method may be referred to https: • //www.invivogen.com/hek-blue-htlr7; https://www.invivogen.com/sites/default/files/invivogen/products/files/hek_blue_htlr7_tds.pdf.

[2] = tested on: human lymphoma Daudi B cells; test: CCK8 growth inhibition, Daudi B; details: Homo sapiens, Daudi, CCK8 method; read-out: IC50 of inhibitory activity on tumor cell growth, Daudi B
black melanoma B16 cells = test: CCK8 growth inhibition, B16; details: Mus musculus, CCK8 method, read-out: IC50 of inhibitory activity on tumor cell growth, B16
[3] = tested on: human lymphoma Raji cells; test: CCK8 growth inhibition, Raji; details: Homo sapiens, Raji, CCK8 method; read-out: IC50 of inhibitory activity on tumor cell growth, Raji
[4] = tested on: human leukemia K562 cells; test: CCK8 growth inhibition, K562; details: CCK8 method, read-out: IC50 of inhibitory activity on tumor cell growth, K562
[5] = tested on: human colon cancer HCT-116 cells; test: CCK8 growth inhibition, HCT-116; details: CCK8 method, read-out: IC50 of inhibitory activity on tumor cell growth, HCT-116
LLC = test: CCK8 growth inhibition, LLC; details: Lewis lung carcinoma; CCK8 method; read-out: IC50 of inhibitory activity on tumor cell growth, LLC
[6] = tested on: human leukemia HL-60 cells; test: CCK8 growth inhibition, HL60; details: Homo sapiens, HL-60, CCK8 method; read-out: IC50 of inhibitory activity on tumor cell growth, HL60
A549 = test: CCK8 growth inhibition, A549; details: Homo sapiens, CCK8 method, read-out: IC50 of inhibitory activity on tumor cell growth, A549
HEK293T cells = test: CCK8 growth inhibition, HEK-293T; details: Homo sapiens, CCK8 method, read-out: IC50 of inhibitory activity on cell growth, HEK-293T
[7] = tested on: murine leukemia WEHI-3 cells; test: CCK8 growth inhibition, WEHI-3; details: Mus musculus, CCK8 method, read-out: IC50 of inhibitory activity on tumor cell growth, WEHI-3

IC50 [1] [µM] | EC50 (TLR7) [µM] | IC50 [2] [µM] | IC50 (black melanoma B16 cells) [µM] | IC50 [3] [µM] | IC50 [4] [µM] | IC50 [5] [µM] | IC50 [6] [µM] | IC50 (A549) [µM] | IC50 [7] [µM] | SMILES | IC50 (LLC) [µM] | IC50 (HEK293T cells) [µM]
6.15 | 3.86 | 11.8 | 11.7 | 16.1 | – | – | – | – | – | CCCCOc1nc(N)c2nc(O)n(Cc3cn(CCCCN4CCN(CCCNC(=S)N5CCCC(n6nc(-c7ccc(Oc8ccccc8)cc7)c7c(N)ncnc76)C5)CC4)nn3)c2n1 (stereo not shown) [GY161] | – | –
16.9 | 1.06 | – | – | – | 17.8 | 20.8 | 19.1 | 23.2 | – | CCCCOc1nc(N)c2nc(O)n(Cc3cn(CCOCCOCCOCCNC(=S)Nc4cc(Nc5nccc(-c6cn(C)c7ccccc67)n5)c(OC)cc4N(C)CCN(C)C)nn3)c2n1 [GY127] | 15.3 | 26
25 | 2.65 | 8.73 | 34.1 | 10.6 | 14.6 | 15.7 | 9.75 | 16.8 | 5.31 | CCCCOc1nc(N)c2nc(O)n(Cc3cn(CCOCCOCCOCCNC(=S)N4CCCC(n5nc(-c6ccc(Oc7ccccc7)cc6)c6c(N)ncnc65)C4)nn3)c2n1 (stereo not shown) [GY112] | 18.8 | 13.8
